In patent US20040235866A1, “Lymphocytic activation inhibitor and remedial agent for autoimmune disease” (priority 2001, published 2004):
Read-outs that look alike come from different tables or passages of the source.

What was measured:
[1] = system: spleen lymphocytes cultured with PLP139-151; experiment: Inhibition effect for lymphocyte activation (antigen-specific division, 3H-thymidine uptake); type: cell-based; settings: female SJL/J mouse spleen lymphocytes, PLP139-151 stimulation, 5 days culture, read-out: IC 50 (inhibition of antigen-specific division of the lymphocytes)
Text: Immunizing a mounse with a partial peptide of a proteolipid protein (PLP), a central myelin protein, induces a chronic encephalomyelitis therein. Sampling lymphocytes from the spleen of the mouse and stimulating by an antigen in vitro allow the induction of antigen-specific activation and division of the lymphocyte. The effect of a drug to the reaction was examined to evaluate the inhibition effect of the drug for lymphocyte activation. Specifically, a female SJL/J mouse was immunized with an adjuvant containing a PLP partial peptide (PLP139-151) under ether anesthesia. On the day of immunization and 2 days thereafter, deactivated Bordetella pertussis (one billion/mouse) was intravenously administered. On 7th or 8th day after the immunization, the mouse was killed by ether anesthesia and then the spleen thereof was extracted to isolate spleen lymphocytes. […] The compound numbers are the same as those described in the previous list (hereinafter, the same).

[2] = system: mice; experiment: Successive 15-day administration to mice (toxicity observation); type: in vivo; settings: 100 mg/kg and 200 mg/kg successively for 15 days
Text: It is thus considered that the compound represented by the general formula (I) has low toxicity.

[3] = system: experimental encephalomyelitis model (PLP peptide p139-151 immunized mouse); experiment: Effect in an experimental encephalomyelitis model; type: in vivo; settings: female SJL/J mouse, 200 mg/kg orally from 5th day to 12th day after initial sensitization, FIG. 2
Experimental: 100 μl of a Freund's complete adjuvant (Difco, containing 0.6 mg/ml of M. tuberculosis H37Ra) containing the PLP peptide (p139-151, Toray Research Center) was subcutaneously injected to a female SJL/J mouse in the back thereof under ether anesthesia for immunization (initial sensitization). Two days after, deactivated Bordetella pertussis was intravenously injected in an amount of about one billion per mouse. Seven days after, immunization was conducted again with the antigen. Over several weeks thereafter, abnormalities in limbs, a tail, and righting reflexes were graded into scored levels and recorded. The subjective compound was orally administered in an amount of 200 mg/kg from 5th day to 12th day after the initial sensitization. In experiments, 12 mice were used for each of a control group and a drug-administered group.
Note that, the experimental encephalomyelitis model described above is a model in which a lymphocyte activated by reacting with an immunized PLP peptide causes an immunoreaction to induce encephalomyelitis, and is widely recognized as a model for evaluating a pharmacological effect of a compound having a lymphocyte activation inhibition effect (e.g., Agents and Actions, 27, 351-355 (1989); and Agents and Actions, 35, 79-84 (1992)).

[4] = system: mouse collagen-induced arthritis; experiment: Effect on mouse collagen-induced arthritis; type: in vivo; settings: DBA/1JN male mouse, FIG. 1
Experimental: A DBA/1JN male mouse (7 weeks of age) was sensitized by intracutaneously injecting in the tail part thereof with 0.1 ml of an emulsion solution obtained by mixing a 0.3% bovine-derived type II collagen solution with the same amount of a Freund's complete adjuvant. After 3 weeks after initial sensitization, a booster was conducted in a similar way to cause arthritis. The subjective compound was made into a solution (5 mg/ml) according to a general method, and the day of the booster and 3 days thereafter, the solution was intravenously administered in an amount of 10 ml/kg (50 mg/kg). In experiments, 8 mice were used for each of a control group and a drug-administered group. The condition of arthritis was evaluated macroscopically on limbs and graded into 5 score levels (0; normal, 1; flare on a finger joint, 2; slight edema on an entire leg, 3; edema on an entire leg, and 4; severe edema on an entire leg), to be shown as a total sum. […] The effect lasted even after the second administration and the inhibition effect was recognized even 36 days after the initial sensitization, i.e., 12 days after administration (FIG. 1). […]

SMILES | IC50 ([1]; Mus musculus, Lymphocyte) | further results
NS(=O)(=O)Cc1ccc(S(=O)(=O)Nc2ccc(Cl)c3c(Cl)c[nH]c23)cc1 [Compound 77, N-(3,4-Dichloro-1H-indol-7-yl)-4-(sulfamoylmethyl)-benzenesulfonamide] | 980 nM | 
NS(=O)(=O)CCc1ccc(S(=O)(=O)Nc2cccc3c(Cl)c[nH]c23)cc1 [Compound 35, N-(3-Chloro-1H-indol-7-yl)-4-(2-sulfamoylethyl)-benzenesulfonamide] | 670 nM | 
N#Cc1ccc(S(=O)(=O)Nc2cccc3c(Cl)c[nH]c23)cc1 [Compound 10, N-(3-Chloro-1H-indol-7-yl)-4-cyanobenzenesulfonamide] |  | IC50 [1]: 590 nM; Body weight [2]: dose-dependent weight increases; Toxicity observation [2]: no observation showing toxicity; Onset of abnormality (limbs, tail, righting reflexes score) [3]: delayed expression of abnormality; Severity of abnormality (limbs, tail, righting reflexes score) [3]: alleviated the severity
CS(=O)(=O)NCc1ccc(S(=O)(=O)Nc2cccc3c(Cl)c[nH]c23)cc1 [Compound 53, N-(3-Chloro-1H-indol-7-yl)-4-[(methanesulfonamido)methyl]-benzenesulfonamide] | 740 nM | 
N#Cc1c[nH]c2c(NS(=O)(=O)c3cccc(Cl)c3)cccc12 [Compound 17, 3-Chloro-N-(3-cyano-1H-indol-7-yl)benzenesulfonamide] | 440 nM | Body weight [2]: dose-dependent weight increases; Toxicity observation [2]: no observation showing toxicity; Onset of abnormality (limbs, tail, righting reflexes score) [3]: delayed expression of abnormality; Severity of abnormality (limbs, tail, righting reflexes score) [3]: alleviated the severity
N#Cc1c[nH]c2c(NS(=O)(=O)c3ccc(N)nc3)cccc12 [Compound 37, 6-Amino-N-(3-cyano-1H-indol-7-yl)-3-pyridinesulfonamide] | 640 nM | 
Cc1ccc(NS(=O)(=O)c2cccc(C#N)c2)c2[nH]cc(C#N)c12 [Compound 94, 3-Cyano-N-(3-cyano-4-methyl-1H-indol-7-yl)-benzenesulfonamide] | 250 nM | Body weight [2]: dose-dependent weight increases; Toxicity observation [2]: no observation showing toxicity
CCS(=O)(=O)Nc1ccc(S(=O)(=O)Nc2cccc3c(Cl)c[nH]c23)cc1 [Compound 70, N-(3-Chloro-1H-indol-7-yl)-4-(ethanesulfonamido)-benzenesulfonamide] | 1400 nM | 
N#Cc1cccc(S(=O)(=O)Nc2cccc3c(C#N)c[nH]c23)c1 [Compound 51, 3-Cyano-N-(3-cyano-1H-indol-7-yl)benzenesulfonamide] | 620 nM | Body weight [2]: dose-dependent weight increases; Toxicity observation [2]: no observation showing toxicity
NC(=O)c1ccc(S(=O)(=O)Nc2cccc3c(Cl)c[nH]c23)cc1 [Compound 29, 4-Carbamoyl-N-(3-chloro-1H-indol-7-yl)benzenesulfonamide] | 2020 nM | 
Nc1ccc(S(=O)(=O)Nc2cccc3c(Cl)c[nH]c23)cc1 [Compound 3, 4-Amino-N-(3-chloro-1H-indol-7-yl)benzenesulfonamide] | 2270 nM | 
N#Cc1ccc(S(=O)(=O)Nc2cccc3c(Cl)c[nH]c23)cc1 [Compound 28, 4-Cyano-N-(3-chloro-1H-indol-7-yl)benzenesulfonamide] |  | IC50 [1]: 2860 nM
CS(=O)(=O)Nc1ccc(S(=O)(=O)Nc2cccc3c(Cl)c[nH]c23)cc1 [Compound 4, N-(3-Chloro-1H-indol-7-yl)-4-(methanesulfonamido)-benzenesulfonamide] | 1430 nM | 
CCNS(=O)(=O)c1ccc(S(=O)(=O)Nc2cccc3c(Cl)c[nH]c23)cc1 [Compound 69, N-(3-Chloro-1H-indol-7-yl)-4-(N-ethylsulfamoyl)-benzenesulfonamide] | 590 nM | 
Nc1ccncc1S(=O)(=O)Nc1cccc2c(Cl)c[nH]c12 [Compound 33, 4-Amino-N-(3-chloro-1H-indol-7-yl)-3-pyridinesulfonamide] | 470 nM | 
CNC(=O)c1ccc(S(=O)(=O)Nc2cccc3c(Cl)c[nH]c23)cc1 [Compound 72, N-(3-Chloro-1H-indol-7-yl)-4-(N-methylcarbamoyl)-benzenesulfonamide] | 1810 nM | 
CS(=O)(=O)CCc1ccc(S(=O)(=O)Nc2cccc3c(Cl)c[nH]c23)cc1 [Compound 36, N-(3-Chloro-1H-indol-7-yl)-4-[2-(methylsulfonyl)ethyl]-benzenesulfonamide] | 780 nM | 
CS(=O)(=O)NCCc1ccc(S(=O)(=O)Nc2cccc3c(Cl)c[nH]c23)cc1 [Compound 62, N-(3-Chloro-1H-indol-7-yl)-4-[2-(methanesulfonamido)ethyl]-benzensulfonamide] | 580 nM | 
NS(=O)(=O)c1ccc(S(=O)(=O)Nc2cccc3c(Cl)c[nH]c23)cc1 [Compound 19, N-(3-Chloro-1H-indol-7-yl)-4-sulfamoylbenzenesulfonamide] | 1830 nM | Effect on crisis and development of arthritis (arthritis score, total sum) ([4]; 50 mg/kg intravenously on the day of the booster and 3 days thereafter): obvious inhibition effect for the crisis and development of arthritis; Duration of the inhibition effect on arthritis, days after the initial sensitization ([4]; 50 mg/kg intravenously, i.e. 12 days after administration): ≥ 36 days
CC(=O)N(C)c1ccc(S(=O)(=O)Nc2cccc3c(Cl)c[nH]c23)cc1 [Compound 79, N-(3-Chloro-1H-indol-7-yl)-4-(N-methylacetamido)-benzenesulfonamide] | 360 nM | 
